Experimental data from patent US6900354B2, “3-phenyl-propionamido, 3-phenyl-acrylamido and 3-phenyl-propynamido derivatives” (Hoffman-La Roche Inc., priority 2002, dated 2005).
pIC50: −log10 of the molar value.

Tests used:
human MAO-B = target: T1, human MAO-B (Homo sapiens, UniProt P27338); test: MAO-B enzymatic activity, spectrophotometric assay (Amplex Red, tyramine) on membranes of transfected EBNA cells; format: biochemical; settings: substrate tyramine, 30 min preincubation at 37° C., pH 7.4
T1 construct: expressed in transfected cells; host or cells: EBNA cells (transient transfection); membranes by centrifugation at 45,000 x g
T1 sequence (P27338 1-520): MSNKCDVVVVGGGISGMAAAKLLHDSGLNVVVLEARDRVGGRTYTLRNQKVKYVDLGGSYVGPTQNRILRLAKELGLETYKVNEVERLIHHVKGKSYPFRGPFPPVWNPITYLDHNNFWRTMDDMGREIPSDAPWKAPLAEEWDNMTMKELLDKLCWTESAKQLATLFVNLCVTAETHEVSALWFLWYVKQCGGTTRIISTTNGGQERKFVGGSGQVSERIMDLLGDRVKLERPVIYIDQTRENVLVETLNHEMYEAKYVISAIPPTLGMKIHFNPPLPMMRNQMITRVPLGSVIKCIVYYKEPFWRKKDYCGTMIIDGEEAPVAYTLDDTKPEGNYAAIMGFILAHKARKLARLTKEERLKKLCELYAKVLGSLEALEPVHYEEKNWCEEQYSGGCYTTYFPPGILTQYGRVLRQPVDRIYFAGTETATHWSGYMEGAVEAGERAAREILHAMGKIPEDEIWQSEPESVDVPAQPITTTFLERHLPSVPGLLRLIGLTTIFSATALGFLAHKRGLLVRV
Description: (§1) The pharmacological activity of the compounds was tested using the following method. The cDNAs encoding human MAO-A and MAO-B were transiently transfected into EBNA cells using the procedure described by Schlaeger and Christensen [Transient Gene Expression in Mammalian Cells Grown in Serum-free Suspension Culture; Cytotechnology, 15:1-13 (1998)]. After transfection, cells were homogenised by means of a Polytron homogenizer in 20 mM Tris HCl buffer, pH 8.0, containing 0.5 mM EGTA and 0.5 mM phenylmethanesulfonyl fluoride. Cell membranes were obtained by centrifugation at 45,000×g and, after two rinsing step with 20 mM Tris HCl buffer, pH 8.0, containing 0.5 mM EGTA, membranes were eventually re-suspended in the above buffer and aliquots stored at −80° C. until use.
(§2) MAO-A and MAO-B enzymatic activity was assayed in 96-well-plates using a spectrophotometric assay adapted from the method described by Zhou and Panchuk-Voloshina [A One-Step Fluorometric Method for the Continuous Measurement of Monoamine Oxidase Activity, Analytical Biochemistry 253:169-174 (1997)]. Briefly, membrane aliquots were incubated in 0.1 M potassium phosphate buffer, pH 7.4, for 30 min at 37° C. with or without various concentrations of the compounds. After this period, the enzymatic reaction was started by the addition of the MAO substrate tyramine together with 1 U/ml horse-radish peroxidase (Roche Biochemicals) and 80 μM N-acetyl-3,7,-dihydroxyphenoxazine (Amplex Red, Molecular Probes). The samples were further incubated for 30 min at 37° C. in a final volume of 200 μl and absorbance was then determined at a wavelength of 570 nm using a SpectraMax plate reader (Molecular Devices). Background (non-specific) absorbance was determined in the presence of 10 μM clorgyline for MAO-A or 10 μM L-deprenyl for MAO-B.
(§3) IC50 values were determined from inhibition curves obtained using nine inhibitor concentrations in duplicate, by fitting data to a four parameter logistic equation using a computer program.

human MAO-A = target: T2, human MAO-A (Homo sapiens, UniProt P21397); test: MAO-A enzymatic activity, spectrophotometric assay (Amplex Red, tyramine) on membranes of transfected EBNA cells; format: biochemical; settings: heading: MAO-A IC50, substrate tyramine, 30 min preincubation at 37° C., pH 7.4
T2 construct: expressed in transfected cells; host or cells: EBNA cells (transient transfection); membranes by centrifugation at 45,000 x g
T2 sequence (P21397 1-527): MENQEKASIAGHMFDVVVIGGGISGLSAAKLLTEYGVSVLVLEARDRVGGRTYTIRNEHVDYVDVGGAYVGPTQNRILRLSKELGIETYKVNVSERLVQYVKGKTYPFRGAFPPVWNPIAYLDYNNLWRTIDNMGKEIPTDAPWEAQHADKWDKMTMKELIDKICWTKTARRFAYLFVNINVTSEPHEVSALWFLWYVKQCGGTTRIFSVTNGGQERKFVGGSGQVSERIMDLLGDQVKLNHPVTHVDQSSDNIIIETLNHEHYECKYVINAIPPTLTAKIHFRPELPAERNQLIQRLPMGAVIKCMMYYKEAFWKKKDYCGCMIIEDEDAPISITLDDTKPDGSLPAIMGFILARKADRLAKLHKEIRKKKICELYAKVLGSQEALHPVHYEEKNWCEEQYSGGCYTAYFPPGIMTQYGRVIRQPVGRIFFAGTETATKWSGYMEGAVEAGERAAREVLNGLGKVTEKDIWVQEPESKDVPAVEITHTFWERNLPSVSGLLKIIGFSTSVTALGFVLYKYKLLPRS
Description: as §1, §2, §3

| pIC50 (human MAO-B) | pIC50 (human MAO-A) | SMILES |
| --- | --- | --- |
| 7.08 | < 5.00 | CC(=Cc1ccc(OCc2cccc(F)c2)cc1)C(N)=O [Example 1, 3-[4-(3-Fluoro-benzyloxy)-phenyl]-2-methyl-acrylamide] |
| 7.54 | < 5.00 | CNC(=O)C(C)Cc1ccc(OCc2cccc(F)c2)cc1 (stereo not drawn) [Example 4, 3-[4-(3-Fluoro-benzyloxy)-phenyl]-2,N-dimethyl-propionamide] |
| 7.01 | 5.25 | NC(=O)C#Cc1ccc(OCc2cccc(F)c2)cc1 [Example 5, 3-[4-(3-Fluoro-benzyloxy)-phenyl]-propynoic acid amide] |
